Test results as given in publication PMC9653409, “Generative deep learning enables the discovery of a potent and selective RIPK1 inhibitor” (Nature Communications, 2022).
pIC50: −log10 of the molar value. Several values for one entry are separate records, joined by “and”; a condition that tells them apart may be missing. Identical values can stand only once.

How the values were obtained:
MLK3 = MLK3 (Homo sapiens, UniProt Q16584); test: Kinase assay (Eurofins); type: biochemical
Protocol: (§1) In vitro kinase activity assays were conducted through the Kinase Profiling Services provided by Eurofins (Eurofins, France). The protocol for the RIPK1 assay is briefly described as follows (Protocols for other kinases are very similar and can be found in http://www.eurofins.com/pharmadiscovery). RIPK1 kinase was incubated with the test compound in assay buffer containing 8 mM MOPS (pH 7.0), 0.2 mM EDTA, 250 μM […], 10 mM magnesium acetate, and 10 μM [γ-33P]-ATP for 15 min at room temperature. The reaction was initiated by the addition of the Mg/ATP mixture. After incubation for 40 min at room temperature, and the reaction was stopped by the addition of 3% phosphoric acid. A 10 μL portion of the reaction mixture was then spotted onto a P30 filter mat and washed four times for 4 min in 0.425% phosphoric acid and once in methanol prior to drying and scintillation counting.

MLK2 = MLK2 (Homo sapiens, UniProt Q02779); test: Kinase assay (Eurofins); type: biochemical
Protocol: as §1

RIPK2 = RIPK2 (Homo sapiens, UniProt O43353); test: Kinase assay (Eurofins); type: biochemical
Protocol: as §1

MLK1 = MLK1 (Homo sapiens, UniProt P80192); test: Kinase assay (Eurofins); type: biochemical
Protocol: as §1

TNFα-induced SIRS = TNFα-induced SIRS mouse model: body temperature loss; type: in vivo, C57BL/6 female mice; settings: for ΔTemperature Average: group average
Protocol: (§2) The body temperatures of the mice were continuously monitored until 6 h after TNFα administration. At 6 h after TNFα injection, four mice in each group were killed at random, and the serums, heart, liver, spleen, lung, and kidney tissues were collected for analysis.

IL-1β = test: TNFα-induced SIRS mouse model: serum IL-1β (ELISA); type: in vivo, C57BL/6 female mice; settings: 40 mg/kg i.p.
Protocol: as §2
(§3) In the TNFα-induced SIRS model, at 6 h after TNFα injection, four mice in each group were killed at random, and the serums were collected, the serum concentrations of IL-1β and IL-6 were measured using ELISA kits (Neobioscience Technology) according to manufacturer’s instructions. […] The supernatant was collected by sequential centrifugation at 500 × g for 10 min and 3000 × g for 10 min. The concentrations of cytokines TNFα, IL-6, and IL-1β were measured using ELISA kits (Neobioscience Technology).

TNFα = test: DSS-induced IBD mouse model: TNFα in cultured colon supernatant (ELISA); type: in vivo, C57BL/6 female mice
Protocol: (§4) DSS (3% w/v) was administered in drinking water ad libitum for 7 d (from day 0 to day 7). DSS solution was replaced three times on day 2, day 4, and day 6. […] Three mice in each group were killed at random on day 7, and distal colon tissues were collected for analysis. The mice weight and survival rate were recorded daily.
as §3

IL-6 [1] = test: DSS-induced IBD mouse model: IL-6 in cultured colon supernatant (ELISA); type: in vivo, C57BL/6 female mice
Protocol: as §4, §3

IL-6 [2] = test: TNFα-induced SIRS mouse model: serum IL-6 (ELISA); type: in vivo, C57BL/6 female mice
Protocol: as §2, §3

[3] = target: panel of human kinases (kinase named in endpoint) (Homo sapiens, UniProt P10398); test: Kinase inhibitory activity profiling of RI-962@10 µM (406 kinases, Eurofins); type: biochemical; settings: 10 µM; read-out: Activity (%), A-Raf(h)
Outline: (§5)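 Radiometric filter-binding kinase assays: enzyme preincubated 15 min with compound in 8 mM MOPS pH 7.0, 0.2 mM EDTA, 250 μM peptide substrate, 10 mM magnesium acetate, 10 μM [γ-33P]-ATP. Reaction started with Mg/ATP, run 40 min at room temperature, stopped with phosphoric acid; 33P incorporation read by scintillation counting. Other kinases by similar protocols.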

[4] = target: panel of human kinases (kinase named in endpoint) (Homo sapiens, UniProt Q8TDR2); test: as above; type: biochemical; settings: 10 µM; read-out: Activity (%), CLIK1(h)
Outline: as §5

[5] = target: panel of human kinases (kinase named in endpoint) (Homo sapiens, UniProt P19525); test: as above; type: biochemical; settings: 10 µM; read-out: Activity (%), PKR(h)
Outline: as §5

[6] = target: panel of human kinases (kinase named in endpoint) (Homo sapiens, UniProt Q8IW41); test: as above; type: biochemical; settings: 10 µM; read-out: Activity (%), PRAK(h)
Outline: as §5

[7] = target: panel of human kinases (kinase named in endpoint) (Homo sapiens, UniProt P36897); test: as above; type: biochemical; settings: 10 µM; read-out: Activity (%), TGFBR1(h)
Outline: as §5

[8] = target: panel of human kinases (kinase named in endpoint) (Homo sapiens, UniProt P49840); test: as above; type: biochemical; settings: 10 µM; read-out: Activity (%), GSK3α(h)
Outline: as §5

[9] = target: panel of human kinases (kinase named in endpoint) (Homo sapiens, UniProt P05129); test: as above; type: biochemical; settings: 10 µM; read-out: Activity (%), PKCγ(h)
Outline: as §5

[10] = target: panel of human kinases (kinase named in endpoint) (Homo sapiens, UniProt Q04912); test: as above; type: biochemical; settings: 10 µM; read-out: Activity (%), Ron(h)
Outline: as §5

[11] = target: panel of human kinases (kinase named in endpoint) (Homo sapiens, UniProt Q9H1R3); test: as above; type: biochemical; settings: 10 µM; read-out: Activity (%), MYLK2(h)
Outline: as §5

[12] = target: panel of human kinases (kinase named in endpoint) (Homo sapiens, UniProt P42684); test: as above; type: biochemical; settings: 10 µM; read-out: Activity (%), Arg(h)
Outline: as §5

[13] = target: panel of human kinases (kinase named in endpoint) (Homo sapiens, UniProt Q9NWZ3); test: as above; type: biochemical; settings: 10 µM; read-out: Activity (%), IRAK4(h)
Outline: as §5

[14] = 0 h after mTNFα, individual mice

Chain of MLK3 (Q16584 whole entry): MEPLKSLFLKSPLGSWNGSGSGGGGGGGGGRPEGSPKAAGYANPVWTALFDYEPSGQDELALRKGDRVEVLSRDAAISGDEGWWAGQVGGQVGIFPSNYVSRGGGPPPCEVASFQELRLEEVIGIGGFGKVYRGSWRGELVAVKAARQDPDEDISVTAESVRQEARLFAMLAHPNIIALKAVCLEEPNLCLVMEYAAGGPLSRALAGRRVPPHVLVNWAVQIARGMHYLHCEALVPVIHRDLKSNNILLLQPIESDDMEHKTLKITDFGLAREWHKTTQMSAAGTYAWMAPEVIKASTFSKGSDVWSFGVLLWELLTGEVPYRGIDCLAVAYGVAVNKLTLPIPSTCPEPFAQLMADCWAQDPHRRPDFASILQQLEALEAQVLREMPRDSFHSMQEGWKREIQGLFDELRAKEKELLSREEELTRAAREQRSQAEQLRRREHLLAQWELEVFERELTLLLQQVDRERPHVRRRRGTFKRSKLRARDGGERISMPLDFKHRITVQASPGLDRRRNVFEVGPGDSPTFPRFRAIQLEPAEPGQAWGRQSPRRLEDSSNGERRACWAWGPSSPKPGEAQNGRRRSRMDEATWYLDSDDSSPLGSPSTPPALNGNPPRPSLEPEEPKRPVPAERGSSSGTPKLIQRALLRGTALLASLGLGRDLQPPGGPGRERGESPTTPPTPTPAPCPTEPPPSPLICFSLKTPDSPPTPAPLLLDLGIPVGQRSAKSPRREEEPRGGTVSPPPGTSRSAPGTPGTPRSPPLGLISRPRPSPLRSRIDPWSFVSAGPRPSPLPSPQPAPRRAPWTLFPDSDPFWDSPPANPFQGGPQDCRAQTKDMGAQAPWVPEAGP
Chain of MLK2 (Q02779 whole entry): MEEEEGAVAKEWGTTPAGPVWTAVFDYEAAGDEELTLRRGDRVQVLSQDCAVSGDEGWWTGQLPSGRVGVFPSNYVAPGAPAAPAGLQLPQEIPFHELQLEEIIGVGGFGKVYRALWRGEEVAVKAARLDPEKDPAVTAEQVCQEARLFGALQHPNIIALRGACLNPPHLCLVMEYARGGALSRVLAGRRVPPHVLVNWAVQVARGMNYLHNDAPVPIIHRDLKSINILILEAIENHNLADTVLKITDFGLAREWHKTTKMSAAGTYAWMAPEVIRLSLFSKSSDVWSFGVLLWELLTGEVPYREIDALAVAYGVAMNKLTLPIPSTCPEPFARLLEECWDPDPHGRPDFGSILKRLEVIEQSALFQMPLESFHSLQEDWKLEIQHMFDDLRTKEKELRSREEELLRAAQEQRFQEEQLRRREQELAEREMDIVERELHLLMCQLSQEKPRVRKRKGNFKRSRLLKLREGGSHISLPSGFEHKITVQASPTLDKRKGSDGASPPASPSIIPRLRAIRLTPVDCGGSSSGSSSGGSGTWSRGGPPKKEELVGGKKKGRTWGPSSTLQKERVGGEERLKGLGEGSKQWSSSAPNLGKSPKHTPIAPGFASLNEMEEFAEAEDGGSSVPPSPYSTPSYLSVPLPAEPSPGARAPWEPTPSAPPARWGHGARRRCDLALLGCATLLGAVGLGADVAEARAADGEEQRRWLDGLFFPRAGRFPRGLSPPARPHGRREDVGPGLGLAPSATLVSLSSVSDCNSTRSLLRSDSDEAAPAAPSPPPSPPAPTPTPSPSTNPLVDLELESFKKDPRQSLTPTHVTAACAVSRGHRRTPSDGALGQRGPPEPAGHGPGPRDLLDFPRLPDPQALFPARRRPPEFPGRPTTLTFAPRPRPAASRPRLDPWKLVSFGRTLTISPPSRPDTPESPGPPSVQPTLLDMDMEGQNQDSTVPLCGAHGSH
Chain of MLK1 (P80192 whole entry): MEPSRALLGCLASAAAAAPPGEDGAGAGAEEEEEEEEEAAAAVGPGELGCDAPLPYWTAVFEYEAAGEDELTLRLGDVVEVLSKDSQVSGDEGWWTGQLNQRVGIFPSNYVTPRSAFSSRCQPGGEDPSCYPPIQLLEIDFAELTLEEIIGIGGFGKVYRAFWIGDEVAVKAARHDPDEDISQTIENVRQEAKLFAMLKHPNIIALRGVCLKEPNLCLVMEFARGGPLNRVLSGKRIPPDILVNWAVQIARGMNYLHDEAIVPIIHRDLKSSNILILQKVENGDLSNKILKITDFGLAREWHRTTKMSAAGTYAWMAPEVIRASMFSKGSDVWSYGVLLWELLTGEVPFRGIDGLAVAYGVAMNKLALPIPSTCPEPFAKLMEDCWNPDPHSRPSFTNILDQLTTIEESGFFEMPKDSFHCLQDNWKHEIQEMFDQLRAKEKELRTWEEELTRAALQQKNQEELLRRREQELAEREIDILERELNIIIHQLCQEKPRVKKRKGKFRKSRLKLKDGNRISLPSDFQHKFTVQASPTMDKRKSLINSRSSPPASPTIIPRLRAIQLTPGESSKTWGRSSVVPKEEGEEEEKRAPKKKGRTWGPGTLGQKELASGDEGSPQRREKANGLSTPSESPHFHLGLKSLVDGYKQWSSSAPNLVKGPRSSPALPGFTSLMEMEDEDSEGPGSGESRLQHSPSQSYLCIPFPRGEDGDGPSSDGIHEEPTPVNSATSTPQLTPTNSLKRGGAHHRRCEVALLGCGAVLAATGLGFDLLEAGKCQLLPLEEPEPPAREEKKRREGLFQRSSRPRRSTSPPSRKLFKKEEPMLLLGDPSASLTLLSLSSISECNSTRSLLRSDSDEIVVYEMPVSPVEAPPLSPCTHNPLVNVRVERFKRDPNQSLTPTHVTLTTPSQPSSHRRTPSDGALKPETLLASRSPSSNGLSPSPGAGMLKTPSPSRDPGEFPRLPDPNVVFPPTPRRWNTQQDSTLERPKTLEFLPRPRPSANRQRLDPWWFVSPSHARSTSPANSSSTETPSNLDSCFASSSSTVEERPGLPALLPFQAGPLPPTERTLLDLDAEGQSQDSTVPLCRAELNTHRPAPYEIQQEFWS
Chain of RIPK2 (O43353 whole entry): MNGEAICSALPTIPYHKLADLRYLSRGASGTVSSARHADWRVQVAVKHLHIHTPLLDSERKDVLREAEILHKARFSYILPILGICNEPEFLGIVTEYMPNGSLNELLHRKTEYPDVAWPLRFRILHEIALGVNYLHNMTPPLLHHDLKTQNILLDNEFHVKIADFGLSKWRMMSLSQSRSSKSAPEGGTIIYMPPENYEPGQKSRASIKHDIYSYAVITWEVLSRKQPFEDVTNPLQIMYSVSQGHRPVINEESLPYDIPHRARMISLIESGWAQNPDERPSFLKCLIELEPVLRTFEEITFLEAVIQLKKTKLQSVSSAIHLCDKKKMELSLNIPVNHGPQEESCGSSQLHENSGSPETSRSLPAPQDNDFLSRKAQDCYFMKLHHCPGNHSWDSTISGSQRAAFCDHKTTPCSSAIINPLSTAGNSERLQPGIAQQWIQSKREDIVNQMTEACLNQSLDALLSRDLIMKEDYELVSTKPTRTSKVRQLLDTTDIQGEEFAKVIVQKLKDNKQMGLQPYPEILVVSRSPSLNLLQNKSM
Chain of panel of human kinases (kinase named in endpoint) (Homo sapiens, UniProt Q9H1R3) (Q9H1R3 whole entry): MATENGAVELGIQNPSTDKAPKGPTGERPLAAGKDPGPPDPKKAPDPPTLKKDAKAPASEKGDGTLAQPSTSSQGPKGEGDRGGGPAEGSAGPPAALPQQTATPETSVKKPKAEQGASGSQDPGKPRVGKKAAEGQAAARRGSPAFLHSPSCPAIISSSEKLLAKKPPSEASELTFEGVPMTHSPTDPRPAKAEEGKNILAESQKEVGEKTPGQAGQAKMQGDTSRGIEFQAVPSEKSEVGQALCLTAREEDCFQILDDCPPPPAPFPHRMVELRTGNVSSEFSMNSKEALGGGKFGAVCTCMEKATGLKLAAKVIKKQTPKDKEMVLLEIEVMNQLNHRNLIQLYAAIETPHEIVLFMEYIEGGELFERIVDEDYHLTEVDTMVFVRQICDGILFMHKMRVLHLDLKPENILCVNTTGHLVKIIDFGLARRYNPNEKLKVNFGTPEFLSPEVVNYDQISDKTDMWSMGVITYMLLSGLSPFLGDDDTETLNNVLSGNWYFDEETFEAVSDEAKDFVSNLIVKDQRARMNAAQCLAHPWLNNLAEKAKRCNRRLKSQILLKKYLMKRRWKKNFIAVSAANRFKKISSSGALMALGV
Chain of panel of human kinases (kinase named in endpoint) (Homo sapiens, UniProt Q8IW41) (Q8IW41 whole entry): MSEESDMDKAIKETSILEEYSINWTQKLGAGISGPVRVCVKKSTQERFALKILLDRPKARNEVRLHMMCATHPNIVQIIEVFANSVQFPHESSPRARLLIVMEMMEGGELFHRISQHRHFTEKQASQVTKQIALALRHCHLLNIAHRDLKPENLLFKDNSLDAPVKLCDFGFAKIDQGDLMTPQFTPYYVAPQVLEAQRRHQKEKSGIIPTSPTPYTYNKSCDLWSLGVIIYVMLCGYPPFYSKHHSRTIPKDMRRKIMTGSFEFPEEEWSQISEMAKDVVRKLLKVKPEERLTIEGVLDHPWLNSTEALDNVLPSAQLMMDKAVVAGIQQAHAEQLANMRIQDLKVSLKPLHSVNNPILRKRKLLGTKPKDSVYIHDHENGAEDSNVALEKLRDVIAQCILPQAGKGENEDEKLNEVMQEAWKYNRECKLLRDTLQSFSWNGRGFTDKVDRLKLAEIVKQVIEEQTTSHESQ
Chain of panel of human kinases (kinase named in endpoint) (Homo sapiens, UniProt Q9NWZ3) (Q9NWZ3 whole entry): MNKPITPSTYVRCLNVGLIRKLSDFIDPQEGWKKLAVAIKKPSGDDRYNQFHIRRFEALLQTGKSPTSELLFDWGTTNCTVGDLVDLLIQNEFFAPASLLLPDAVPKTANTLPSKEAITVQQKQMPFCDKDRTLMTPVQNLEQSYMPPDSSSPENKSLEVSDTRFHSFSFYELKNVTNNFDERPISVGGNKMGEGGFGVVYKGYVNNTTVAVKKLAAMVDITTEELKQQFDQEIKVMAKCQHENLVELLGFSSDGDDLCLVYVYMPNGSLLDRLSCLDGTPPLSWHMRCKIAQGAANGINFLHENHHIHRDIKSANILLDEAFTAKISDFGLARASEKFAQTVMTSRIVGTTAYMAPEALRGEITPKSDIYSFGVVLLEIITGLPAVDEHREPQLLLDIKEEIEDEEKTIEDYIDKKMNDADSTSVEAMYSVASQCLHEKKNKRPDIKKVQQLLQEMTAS

## CC(C)C(=O)Nc1nc2cc(-c3ccc4c(c3)c(C(=O)NC(C)c3ccccc3)cn4C)ccn2n1 (centres unmarked) [RI-962]
MLK3
  folds less potent against MLK3 than against RIPK1: 107 folds
MLK3; 10 µM, read-out: Activity (%), MLK3(h)
  activity at 10 µM: 20%
MLK3; MLK3
  pIC50: 5.43
MLK2; 10 µM, read-out: Activity (%), MLK2(h)
  activity at 10 µM: 29%
MLK2; MLK2
  pIC50: < 5.00
RIPK2; 10 µM, read-out: Activity (%), RIPK2(h)
  activity at 10 µM: 79%
RIPK2; RIPK2
  pIC50: < 5.00
MLK1; 10 µM, read-out: Activity (%), MLK1(h)
  activity at 10 µM: 36%
MLK1; MLK1
  pIC50: < 5.00
TNFα-induced SIRS; 0 h after mTNFα
  ΔTemperature Average: 0 °C
TNFα-induced SIRS; [14]
  Temperature: 36.3 °C (4×) and 36.5 °C (3×) and 36.2 °C (5×) and 36.6 °C (2×)
  ΔTemperature: 0 °C
TNFα-induced SIRS; 40 mg/kg i.p.
  TNFα-induced temperature loss: remarkably reduced
TNFα-induced SIRS; 1 h after mTNFα
  ΔTemperature Average: -0.06429 °C
TNFα-induced SIRS; 1 h after mTNFα, individual mice
  Temperature: 36.3 °C (5×) and 36.2 °C (5×) and 36.1 °C and 36.5 °C (2×) and 36.4 °C
TNFα-induced SIRS; 2 h after mTNFα
  ΔTemperature Average: 0.05 °C
TNFα-induced SIRS; 2 h after mTNFα, individual mice
  Temperature: 36.3 °C (7×) and 36.4 °C and 36.5 °C (5×) and 36.6 °C
TNFα-induced SIRS; 3 h after mTNFα
  ΔTemperature Average: 0.01429 °C
TNFα-induced SIRS; 3 h after mTNFα, individual mice
  Temperature: 36.3 °C (6×) and 36.4 °C (4×) and 36.5 °C (3×) and 36.2 °C
TNFα-induced SIRS; 4 h after mTNFα
  ΔTemperature Average: 0.007143 °C
TNFα-induced SIRS; 4 h after mTNFα, individual mice
  Temperature: 36.2 °C (2×) and 36.5 °C (4×) and 36.4 °C (2×) and 36.3 °C (6×)
TNFα-induced SIRS; 5 h after mTNFα
  ΔTemperature Average: -0.02143 °C
TNFα-induced SIRS; 5 h after mTNFα, individual mice
  Temperature: 36.3 °C (7×) and 36.4 °C (3×) and 36.1 °C and 36.5 °C (2×) and 36.2 °C
TNFα-induced SIRS; 6 h after mTNFα
  ΔTemperature Average: -0.1571 °C
TNFα-induced SIRS; 6 h after mTNFα, individual mice
  Temperature: 36.3 °C (8×) and 36.4 °C and 35.9 °C (3×) and 36 °C and 36.2 °C
IL-1β; 6 h after TNFα
  concentration of IL-1β: remarkably reduced
IL-1β; serum 6 h after TNFα, animals 1-4
  IL-1β: 95.48 pg/mL and 91.16 pg/mL and 77.29 pg/mL and 76.39 pg/mL
TNFα; 40 mg/kg i.p., day 7
  content of TNFα in cultured colonic tissue supernatants: substantially reduced
TNFα; Figure 9g, individual replicates 1-3
  TNFα: 139.9 pg/mL and 111.6 pg/mL and 109.1 pg/mL
IL-6 [1]; 40 mg/kg i.p., day 7
  content of IL-6 in cultured colonic tissue supernatants: substantially reduced
IL-6 [1]; Figure 9i, individual replicates 1-3
  IL-6: 994.1 pg/mL and 876.1 pg/mL and 967.8 pg/mL
IL-6 [2]; 40 mg/kg i.p., 6 h after TNFα
  concentration of IL-6: remarkably reduced
IL-6 [2]; Figure 8d, individual replicates 1-4
  IL-6: 652.9 pg/mL and 1655 pg/mL and 2421 pg/mL and 1071 pg/mL
[3]
  activity at 10 µM: 80%
[4]
  activity at 10 µM: 132%
[5]
  activity at 10 µM: 97%
[6]
  activity at 10 µM: 64%
[7]
  activity at 10 µM: 98%
[8]
  activity at 10 µM: 112%
[9]
  activity at 10 µM: 93%
[10]
  activity at 10 µM: 104%
[11]
  activity at 10 µM: 86%
[12]
  activity at 10 µM: 106%
[13]
  activity at 10 µM: 79%
